These results are taken from US8524690B2, “DNA polymerase inhibitors composition and methods” (The Trustees of the University of Pennsylvania, priority 2007, dated 2013).

The conditions of data set [1]: cited from earlier work.
Another data set relates to verruca vulgaris (warts). The data set can be described thus: Topical 3% cidofovir applied to the face for treatment of verruca vulgaris (warts). As to conditions: 3% topical ointment, once a day, one patient. It is filed as in vivo, human. How it is done: A 3% topical ointment of cidofovir was prepared by mixing 3 g of cidofovir in 97 g of petrolatum. A 3% topical preparation of cidofovir was applied to the beard area of a patient. The formulation was applied by the patient once a day to the affected areas of the face for the treatment of verruca vulgaris (warts). […] After 4-8 weeks the patient had alopecia in the areas of the face where the medication was applied. This was the only hair bearing area that the patient applied the medication to. The warts resolved in approximately 2-3 months.

The subject of a further data set is hair of the beard area. The data set can be described thus: Topical 3% cidofovir ointment applied once a day to beard area of a patient: alopecia and local tolerability. It counts as in vivo, human. Here is the method:
A 3% topical ointment of cidofovir was prepared by mixing 3 g of cidofovir in 97 g of petrolatum.
A 3% topical preparation of cidofovir was applied to the beard area of a patient. The formulation was applied by the patient once a day to the affected areas of the face for the treatment of verruca vulgaris (warts). […] After 4-8 weeks the patient had alopecia in the areas of the face where the medication was applied. This was the only hair bearing area that the patient applied the medication to. The warts resolved in approximately 2-3 months.
The hair cycle time of the face is the shortest on the body. At any one point in time, up to 80% of the hair on the face (i.e. the beard area) is in the active growth phase.

Regarding `Nc1nc2c(ncn2COCCO)c(=O)[nH]1` [Acyclovir], the oral bioavailability entry in data set [1] is on record as “low oral bioavailability”.

In the case of `Nc1ccn(C[C@@H](CO)OCP(=O)(O)O)c(=O)n1` [cidofovir, (S)-1-[3-hydroxy-2-(phosphonylmethoxy)propyl]cytosine], the “time until warts resolved” value with verruca vulgaris (warts) is reported as 2-3 months. The “time until alopecia in the areas of the face where the medication was applied” value in the data set on hair of the beard area (3% topical ointment in petrolatum, once a day, beard area, one patient) is recorded as 4-8 weeks. Besides, the “local reaction to application” value with hair of the beard area (3% topical ointment, once a day, face, application discontinued for several days then resumed) is given as “mild inflammation”. In the data set with hair of the beard area (after stopping 3% topical cidofovir, beard area), the “hair regrowth upon discontinuation of topical cidofovir” value is given as “the hair grew back”.
